Experimental data as given in US20180148418A1, “AMIDO-SUBSTITUTED CYCLOHEXANE DERIVATIVES” (Bayer Pharma Aktiengesellschaft, priority 2015, published 2018).

Columns and labels:
[1] = biological target: T1, TNKS1 (Homo sapiens, UniProt O95271); assay: TNKS1 Assay B (auto-parsylation, [3H]-NAD+ SPA); assay type: biochemical; settings: 6 nM TNKS1, auto-parsylation, over night at room temperature
T1 construct: purchased BPS Bioscience, San Diego, USA 80579 (TNKS1 Histone Ribosylation Assay Kit)
T1 sequence (O95271 1-1327): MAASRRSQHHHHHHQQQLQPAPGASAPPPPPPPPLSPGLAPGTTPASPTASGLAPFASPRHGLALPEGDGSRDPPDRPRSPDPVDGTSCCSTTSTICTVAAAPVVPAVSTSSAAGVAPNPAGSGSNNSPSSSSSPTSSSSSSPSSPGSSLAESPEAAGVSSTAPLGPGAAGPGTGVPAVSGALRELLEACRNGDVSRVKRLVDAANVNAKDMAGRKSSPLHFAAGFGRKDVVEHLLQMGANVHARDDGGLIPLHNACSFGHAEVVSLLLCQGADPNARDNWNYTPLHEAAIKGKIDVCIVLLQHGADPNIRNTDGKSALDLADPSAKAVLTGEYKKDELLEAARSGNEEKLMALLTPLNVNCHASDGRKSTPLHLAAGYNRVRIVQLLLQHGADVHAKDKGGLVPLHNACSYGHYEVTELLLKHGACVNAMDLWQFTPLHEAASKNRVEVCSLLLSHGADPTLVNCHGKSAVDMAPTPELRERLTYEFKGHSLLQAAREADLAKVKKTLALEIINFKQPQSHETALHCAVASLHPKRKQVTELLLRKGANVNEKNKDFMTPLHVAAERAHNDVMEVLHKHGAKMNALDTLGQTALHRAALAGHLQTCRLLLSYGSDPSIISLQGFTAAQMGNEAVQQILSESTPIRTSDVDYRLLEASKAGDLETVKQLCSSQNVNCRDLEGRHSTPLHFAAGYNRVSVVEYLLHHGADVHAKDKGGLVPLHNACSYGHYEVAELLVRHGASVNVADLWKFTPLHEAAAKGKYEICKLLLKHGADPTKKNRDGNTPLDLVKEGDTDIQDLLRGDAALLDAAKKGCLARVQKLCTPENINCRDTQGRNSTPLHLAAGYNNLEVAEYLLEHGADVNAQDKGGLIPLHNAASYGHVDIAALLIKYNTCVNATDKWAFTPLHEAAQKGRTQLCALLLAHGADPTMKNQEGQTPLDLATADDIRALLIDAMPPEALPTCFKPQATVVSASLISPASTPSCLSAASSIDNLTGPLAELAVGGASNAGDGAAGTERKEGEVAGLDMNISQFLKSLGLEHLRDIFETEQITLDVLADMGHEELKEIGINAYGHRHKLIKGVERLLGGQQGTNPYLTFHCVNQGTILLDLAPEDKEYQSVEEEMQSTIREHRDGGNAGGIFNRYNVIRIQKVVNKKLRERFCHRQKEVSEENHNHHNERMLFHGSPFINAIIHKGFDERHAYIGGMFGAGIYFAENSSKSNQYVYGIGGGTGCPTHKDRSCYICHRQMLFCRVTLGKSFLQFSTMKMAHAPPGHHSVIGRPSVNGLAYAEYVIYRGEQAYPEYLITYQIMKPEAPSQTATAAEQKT

[2] = system: HEK293 cells cotransfected with the FOP control vector; assay: HEK293 FOP assay (control reporter with non-functional TCF elements); assay type: cell-based; settings: Homo sapiens, 16 hours
Outline: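 Compound series from 50 μM down to 15 nM, prediluted in DMSO then 50-fold into CAFTY buffer (pH 7.4, 2 mM Ca2+, 0.01% BSA), tested alongside TOP cells on a Geneticin-selected HEK293 FOP line whose TCF elements are replaced by a random sequence; recombinant human Wnt-3a applied at 2500-5 ng/ml.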

| Compound | IC50 [1] [nM] | IC50 [2] [nM] |
| --- | --- | --- |
| O=C(NC12CCC(C(=O)Nc3c(F)cc(F)cc3Cl)(CC1)CC2)c1cnn2cccnc12 [Example 119, N-{4-[(2-chloro-4,6-difluorophenyl)carbamoyl]bicyclo[2.2.2]oct-1-yl}pyrazolo[1,5-a]pyrimidine-3-carboxamide] | 560 | ≥ 50000 |
| O=C(NC12CCC(C(=O)Nc3cnccc3Cl)(CC1)CC2)c1cnn2cccnc12 [Example 120, N-{4-[(4-chloropyridin-3-yl)carbamoyl]bicyclo[2.2.2]oct-1-yl}pyrazolo[1,5-a]pyrimidine-3-carboxamide] | 210 | 7100 |
| O=C(NC12CCC(C(=O)Nc3ccc(F)cc3Cl)(CC1)CC2)c1cnc2cccnn12 [Example 121, N-{4-[(2-chloro-4-fluorophenyl)carbamoyl]bicyclo[2.2.2]oct-1-yl}imidazo[1,2-b]pyridazine-3-carboxamide] | 400 | ≥ 50000 |
| Cc1cc(NC(=O)C23CCC(NC(=O)c4cnc5cccnn45)(CC2)CC3)c(Cl)cc1F [Example 122, N-{4-[(2-chloro-4-fluoro-5-methylphenyl)carbamoyl]bicyclo[2.2.2]oct-1-yl}imidazo[1,2-b]pyridazine-3-carboxamide] | 240 | ≥ 50000 |
| O=C(NC12CCC(C(=O)Nc3c(F)cc(F)cc3Cl)(CC1)CC2)c1cnc2cccnn12 [Example 123, N-{4-[(2-chloro-4,6-difluorophenyl)carbamoyl]bicyclo[2.2.2]oct-1-yl}imidazo[1,2-b]pyridazine-3-carboxamide] | 1000 | ≥ 50000 |
| O=C(NC12CCC(C(=O)Nc3cnccc3Cl)(CC1)CC2)c1cnc2cccnn12 [Example 124, N-{4-[(4-chloropyridin-3-yl)carbamoyl]bicyclo[2.2.2]oct-1-yl}imidazo[1,2-b]pyridazine-3-carboxamide] | 230 | 8900 |
| Cc1cc(C)n2ncc(C(=O)NC34CCC(C(=O)Nc5ccc(F)cc5Cl)(CC3)CC4)c2n1 [Example 125, N-{4-[(2-chloro-4-fluorophenyl)carbamoyl]bicyclo[2.2.2]oct-1-yl}-5,7-dimethylpyrazolo[1,5-a]pyrimidine-3-carboxamide] | 120 | ≥ 50000 |
| Cc1cc(C)n2ncc(C(=O)NC34CCC(C(=O)Nc5cc(C)c(F)cc5Cl)(CC3)CC4)c2n1 [Example 126, N-{4-[(2-chloro-4-fluoro-5-methylphenyl)carbamoyl]bicyclo[2.2.2]oct-1-yl}-5,7-dimethylpyrazolo[1,5-a]pyrimidine-3-carboxamide] | 82 | ≥ 50000 |
| Cc1cc(C)n2ncc(C(=O)NC34CCC(C(=O)Nc5c(F)cc(F)cc5Cl)(CC3)CC4)c2n1 [Example 127, N-{4-[(2-chloro-4,6-difluorophenyl)carbamoyl]bicyclo[2.2.2]oct-1-yl}-5,7-dimethylpyrazolo[1,5-a]pyrimidine-3-carboxamide] | 320 | ≥ 50000 |
| Cc1cc(C)n2ncc(C(=O)NC34CCC(C(=O)Nc5cnccc5Cl)(CC3)CC4)c2n1 [Example 128, N-{4-[(4-chloropyridin-3-yl)carbamoyl]bicyclo[2.2.2]oct-1-yl}-5,7-dimethylpyrazolo[1,5-a]pyrimidine-3-carboxamide] | 88 | ≥ 50000 |
| O=C(NCC1CCCO1)c1nc[nH]c1C(=O)N[C@H]1CC[C@H](C(=O)Nc2cc(F)ccc2Cl)CC1 (stereo partly drawn) [Example 129, N^5-{trans-4-[(2-chloro-5-fluorophenyl)carbamoyl]cyclohexyl}-N^4-(tetrahydrofuran-2-ylmethyl)-1H-imidazole-4,5-dicarboxamide] | 45 | 39000 |
| O=C(N[C@H]1CC[C@H](C(=O)Nc2cc(F)c(F)cc2Cl)CC1)c1cnn2cccnc12 [Example 130, N-{trans-4-[(2-chloro-4,5-difluorophenyl)carbamoyl]cyclohexyl}pyrazolo[1,5-a]pyrimidine-3-carboxamide] | 34 | ≥ 50000 |
| O=C(N[C@H]1CC[C@H](C(=O)Nc2cc(F)c(F)cc2Cl)CC1)c1cnc2cccnn12 [Example 132, N-{trans-4-[(2-chloro-4,5-difluorophenyl)carbamoyl]cyclohexyl}imidazo[1,2-b]pyridazine-3-carboxamide] | 64 | ≥ 50000 |
| O=C(N[C@H]1CC[C@H](C(=O)Nc2c(F)cc(F)cc2Cl)CC1)c1cnc2cccnn12 [Example 133, N-{trans-4-[(2-chloro-4,6-difluorophenyl)carbamoyl]cyclohexyl}imidazo[1,2-b]pyridazine-3-carboxamide] | 140 | ≥ 50000 |
| Cc1cc(C)n2ncc(C(=O)N[C@H]3CC[C@H](C(=O)Nc4cc(F)c(F)cc4Cl)CC3)c2n1 [Example 134, N-{trans-4-[(2-chloro-4,5-difluorophenyl)carbamoyl]cyclohexyl}-5,7-dimethylpyrazolo[1,5-a]pyrimidine-3-carboxamide] | 74 | ≥ 50000 |
| Cc1cc(C)n2ncc(C(=O)N[C@H]3CC[C@H](C(=O)Nc4c(F)cc(F)cc4Cl)CC3)c2n1 [Example 135, N-{trans-4-[(2-chloro-4,6-difluorophenyl)carbamoyl]cyclohexyl}-5,7-dimethylpyrazolo[1,5-a]pyrimidine-3-carboxamide] | 48 | ≥ 50000 |
| O=C(N[C@H]1CC[C@@]2(CCN(c3ccc(F)cc3Cl)C2=O)CC1)c1cnn2cccnc12 [Example 136, N-[(trans)-2-(2-chloro-4-fluorophenyl)-1-oxo-2-azaspiro[4.5]dec-8-yl]pyrazolo[1,5-a]pyrimidine-3-carboxamide] | 13 | ≥ 50000 |
| Cc1cnc2c(C(=O)N[C@H]3CC[C@@]4(CCN(c5ccc(F)cc5Cl)C4=O)CC3)cnn2c1 [Example 137, N-[(trans)-2-(2-chloro-4-fluorophenyl)-1-oxo-2-azaspiro[4.5]dec-8-yl]-6-methylpyrazolo[1,5-a]pyrimidine-3-carboxamide] | 11 | ≥ 50000 |
| O=C(N[C@H]1CC[C@@]2(CCN(c3ccc(F)cc3Cl)C2=O)CC1)c1cnc2cccnn12 [Example 138, N-[(trans)-2-(2-chloro-4-fluorophenyl)-1-oxo-2-azaspiro[4.5]dec-8-yl]imidazo[1,2-b]pyridazine-3-carboxamide] | 22 | ≥ 50000 |
| Cc1cc(C)n2ncc(C(=O)N[C@H]3CC[C@@]4(CCN(c5ccc(F)cc5Cl)C4=O)CC3)c2n1 [Example 139, N-[(trans)-2-(2-chloro-4-fluorophenyl)-1-oxo-2-azaspiro[4.5]dec-8-yl]-5,7-dimethylpyrazolo[1,5-a]pyrimidine-3-carboxamide] | 11 | ≥ 50000 |
| CNC(=O)c1[nH]cnc1C(=O)N[C@H]1CC[C@@]2(CCN(c3ccc(F)cc3Cl)C2=O)CC1 [Example 140, N^4-[(trans)-2-(2-chloro-4-fluorophenyl)-1-oxo-2-azaspiro[4.5]dec-8-yl]-N^5-methyl-1H-imidazole-4,5-dicarboxamide] | 12 | ≥ 50000 |
| CCNC(=O)c1[nH]cnc1C(=O)N[C@H]1CC[C@@]2(CCN(c3ccc(F)cc3Cl)C2=O)CC1 [Example 141, N^4-[(trans)-2-(2-chloro-4-fluorophenyl)-1-oxo-2-azaspiro[4.5]dec-8-yl]-N^5-ethyl-1H-imidazole-4,5-dicarboxamide] | 11 | ≥ 50000 |
| CNC(=O)c1nc[nH]c1C(=O)N[C@H]1CC[C@H](C(=O)Nc2cc(C(F)(F)F)ccc2Cl)CC1 [Example 142, N^5-(trans-4-{[2-chloro-5-(trifluoromethyl)phenyl]carbamoyl}cyclohexyl)-N^4-methyl-1H-imidazole-4,5-dicarboxamide] | 93 | 41000 |
